Patent US11447486B2, “2-amino-benzimidazole derivatives and their use as 5-lipoxygenase and/or prostaglandin E synthase inhibitors” (INSTITUT PASTEUR KOREA, priority 2014, dated 2022)
Read-outs that look alike come from different tables or passages of the source.

Key:
[1] = biological target: T1, human 5-LOX (Homo sapiens, UniProt P09917); assay: 5-LOX enzyme activity, fluorescence method (5-HPETE, H2DCFDA); format: biochemical; details: read-out: 5-LO (IC50)
T1 construct: purchased Cayman 60402; host or cells: insect cells (lysate)
T1 sequence (P09917 1-674): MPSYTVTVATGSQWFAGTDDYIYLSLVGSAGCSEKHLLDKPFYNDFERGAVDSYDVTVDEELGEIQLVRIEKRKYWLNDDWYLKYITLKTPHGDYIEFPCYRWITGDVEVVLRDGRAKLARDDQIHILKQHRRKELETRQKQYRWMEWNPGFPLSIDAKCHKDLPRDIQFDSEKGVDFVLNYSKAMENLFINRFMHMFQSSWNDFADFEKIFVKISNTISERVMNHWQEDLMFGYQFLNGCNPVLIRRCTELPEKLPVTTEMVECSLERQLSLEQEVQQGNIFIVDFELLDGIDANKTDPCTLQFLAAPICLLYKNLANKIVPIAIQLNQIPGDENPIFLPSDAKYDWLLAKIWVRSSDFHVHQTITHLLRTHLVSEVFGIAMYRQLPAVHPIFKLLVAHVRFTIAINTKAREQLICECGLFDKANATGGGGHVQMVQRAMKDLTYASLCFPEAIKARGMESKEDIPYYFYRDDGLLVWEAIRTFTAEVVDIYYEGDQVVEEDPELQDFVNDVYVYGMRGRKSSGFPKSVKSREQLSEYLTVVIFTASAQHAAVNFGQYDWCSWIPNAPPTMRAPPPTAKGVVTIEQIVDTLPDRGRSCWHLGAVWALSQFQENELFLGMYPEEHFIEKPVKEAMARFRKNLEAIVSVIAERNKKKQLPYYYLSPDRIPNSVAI
Method: The activity of compounds against 5-LOX were determined by measuring LTB4 (leukotriene B4) levels and/or by a fluorescence method. Both approaches are outlined in more detail below;
The compound, in a dose response manner(0.5 nM to 10 uM), and enzyme mixture was pre-incubated for 5 minutes, and the enzymatic reaction was initiated by addition of ATP and arachidonic acid to a final concentration of 100 uM and 3 uM, respectively. […] All steps were carried out at room temperature.

[2] = test system: Rat basophilic leukemia (RBL) cells; assay: LTB4 secretion assay in RBL (rat basophilic leukemia cells); format: cell-based
Method: Rat basophilic leukemia (RBL) cells (ATCC, Cat #CRL-2256) were maintained in EMEM (ATCC, Cat #30-2003) supplemented with 15% FBS. The day before RBL assay, cells were seeded at a concentration of 2×10^4 cells per well in 96-well plates. The media was replaced with 100 ul of EMEM supplemented with 0.5% FBS and compounds in dose response(5 nM to 100 uM) were added. After 15 min of pre-incubation at 37° C., arachidonic acid and calcium ionophore (A23187) were added to give a final concentration of 2.5 uM and 5 uM, respectively. After a further 10 min incubation at 37° C., culture supernatant was transferred and quantification of LTB4 was done with a Leukotriene B4 EIA kit (Cayman, Cat #520111) as instructed.

Row | Compound | IC50 [1] [µM] | EC50 [2] [µM] | EC50 ([2]; Rattus norvegicus, RBL) [µM]
1 | CCn1c(NCc2ccc(Oc3ncc(Cl)cn3)cc2)nc2ccc(Nc3cc(C(F)(F)F)n(C)n3)cc21 [Compound 510] | > 10 | < 10 | 
2 | Cn1c(NCc2ccc(Oc3nccc4cc(Cl)ccc34)cc2)nc2ccc(NC3COC3)cc21 [Compound 439] | < 1 |  | 10 to 20
3 | CC(Nc1ccc2[nH]c(N(C)C)nc2c1)c1ccc(Oc2ccc(Cl)cc2)cc1 (stereo not shown) [Compound 131] | < 1 |  | < 10
4 | CN(C)c1nc2cc(NCc3ccc(-c4nc(C(=O)O)co4)cc3)ccc2[nH]1 [Compound 228] | < 1 |  | > 20
5 | Cn1c(NCc2ccc(Oc3ncc(Cl)cc3Cl)cc2)nc2ccc(N)cc21 [Compound 321] | < 1 |  | 10 to 20
6 | Cn1c(NCc2ccc(Oc3ncc4c(Cl)cccc4n3)cc2)nc2ccc(NC3COC3)cc21 [Compound 435] | < 1 |  | < 10
7 | Cc1cc(Oc2ccc(Cl)cn2)ccc1CNc1nc2ccc(N)cc2n1C [Compound 290] | < 1 |  | < 10
8 | Cn1c(NCc2cc(Cl)c(Oc3ncc(Cl)cn3)cc2Cl)nc2ccc(N)cc21 [Compound 432] | < 1 |  | < 10
9 | COc1ccc(Oc2ccc(CNc3nc4ccc(NC5COC5)cc4n3C)cc2)nc1 [Compound 331] | < 1 |  | < 10
10 | Nc1ccc2c(c1)nc(-n1cc(F)cn1)n2CCOc1ccc(OC(F)(F)F)cc1 [Compound 82] | > 10 |  | 10 to 20
11 | CCn1c(NCc2ccc(Oc3cnc(Cl)cn3)cc2)nc2ccc(Nc3n[nH]c(C)c3Cl)cc21 [Compound 515] | > 10 |  | < 10
12 | CCOC(c1ccc(CNc2nc3ccc(N)cc3[nH]2)cc1)c1ccccn1 (stereo not shown) [Compound 188] | < 1 |  | > 20
13 | CN(C)c1nc2ccc(NCc3ccc(C4(C(N)=O)CCOCC4)cc3)cc2[nH]1 [Compound 237] | < 1 |  | > 20
14 | Cn1c(NCc2ccc(Oc3ccc(Cl)cc3)cn2)nc2ccc(N)cc21 [Compound 297] | < 1 |  | < 10
15 | Cn1c(NCc2ccc(Oc3ccc(Cl)cn3)c(F)c2)nc2ccc(N)cc21 [Compound 267] | < 1 |  | < 10
16 | Cn1c(N2CCC(COc3ccc(Cl)cc3)CC2)nc2ccc(N)cc21 [Compound 163] | < 1 |  | > 20
17 | Cn1c(NCc2ccc(-n3ccc4cc(Cl)cnc43)cc2)nc2ccc(NC3COC3)cc21 [Compound 446] | < 1 |  | < 10
18 | Cn1c(NCc2ccc(Oc3ccc(Cl)cn3)cc2)nc2ccc(N)cc21 [Compound 210] | < 1 |  | < 10
19 | Cn1c(NCc2ccc(Oc3ncc4cccc(Cl)c4n3)cc2)nc2ccc(N)cc21 [Compound 436] | < 1 |  | < 10

Row | Compound | IC50 [1] [µM] | EC50 [2] [µM] | EC50 ([2]; Rattus norvegicus, RBL) [µM]
20 | Cc1ccc(Oc2ccc(CNc3nc4ccc(NC5COC5)cc4n3C)cc2)nc1 [Compound 353] | < 1 |  | < 10
21 | Nc1ccc2nc(NCc3coc(Cc4ccc(Cl)cc4)n3)[nH]c2c1 [Compound 186] | < 1 |  | < 10
22 | Cn1c(NCc2ccc(-n3ccc4cc(Cl)cnc43)cc2)nc2ccc(N)cc21 [Compound 445] | < 1 |  | < 10
23 | Cn1c(NCc2ccc(Oc3ncc4cc(Cl)ccc4n3)cc2)nc2ccc(N)cc21 [Compound 405] | < 1 |  | < 10
24 | Cn1c(NCc2ccc(Oc3ncc(Cl)c(C4CC4)n3)cc2)nc2ccc(NC3COC3)cc21 [Compound 398] | < 1 |  | < 10
25 | Cn1c(NCc2ccc(Oc3ccncn3)cc2)nc2ccc(N)cc21 [Compound 370] | < 1 |  | 10 to 20
26 | Cn1c(N(CCO)Cc2ccc(Oc3ccc(Cl)cn3)cc2)nc2ccc(NC3COC3)cc21 [Compound 318] | < 1 |  | > 20
27 | Nc1ccc2nc(NCCO)n(Cc3ccc(Oc4ccc(Cl)cn4)cc3)c2c1 [Compound 250] | < 1 |  | < 10
28 | Cn1c(NCc2ccc(Oc3ccc4cccc(Cl)c4n3)cc2)nc2ccc(NC3COC3)cc21 [Compound 422] | < 1 |  | < 10
29 | Cn1c(NCc2ccc(Oc3ncc(Cl)cn3)cc2)nc2ccc(NC3CN(C(N)=O)C3)cc21 [Compound 408] | < 1 |  | > 20
30 | Cn1c(NCc2ccc(Oc3ccc(Cl)cc3)cc2)nc2ccc(NCC(N)=O)cc21 [Compound 170] | < 1 |  | 10 to 20
31 | Cc1cc(CNc2nc3ccc(NC4COC4)cc3n2C)ccc1Oc1ccc(Cl)cn1 [Compound 283] | < 1 |  | < 10
32 | Cn1c(NCc2ccc(Oc3ncc(Cl)cc3F)cc2)nc2ccc(N)cc21 [Compound 323] | < 1 |  | < 10
33 | Cc1cc(CNc2nc3ccc(N)cc3n2C)ccc1Oc1ccc(Cl)cn1 [Compound 282] | < 1 |  | < 10
34 | CCC(Nc1nc2ccc(NC3COC3)cc2n1C)c1ccc(Oc2ncc(Cl)cn2)cc1 (stereo not shown) [Compound 453] | < 1 |  | < 10
35 | Nc1ccc2nc(NCc3ccc(C(O)c4ccccn4)cc3)[nH]c2c1 (stereo not shown) [Compound 139] | < 1 |  | > 20
36 | CCOC(=O)CN(c1ccc(F)cc1)c1ccc(CNc2ccc3nc(N(C)C)[nH]c3c2)cc1 [Compound 185] | < 1 |  | < 10
37 | CN(C)c1nc2cc(NCc3ccc(CC(N)=O)cc3)ccc2[nH]1 [Compound 232] | < 1 |  | > 20
38 | CN(C)c1nc2ccc(Nc3ccn(C)n3)cc2n1CCOc1ccc(OC(F)(F)F)cc1 [Compound 45] | > 10 |  | < 10

Row | Compound | IC50 [1] [µM] | EC50 [2] [µM] | EC50 ([2]; Rattus norvegicus, RBL) [µM]
39 | Cn1c(NCc2ccc(Oc3ccc(Cl)cn3)cn2)nc2ccc(N)cc21 [Compound 299] | < 1 |  | < 10
40 | Cn1c(NCc2ccc(Nc3ncc(Cl)cn3)cc2)nc2ccc(N)cc21 [Compound 458] | < 1 |  | < 10
41 | Nc1ccc2nc(N3CCC(O)C3)n(Cc3ccc(Oc4ccc(Cl)cc4)cc3)c2c1 (stereo not shown) [Compound 206] | < 1 |  | < 10
42 | Cn1c(NCc2ccc(Oc3cn4ccc(Cl)cc4n3)cc2)nc2ccc(NC3COC3)cc21 [Compound 455] | < 1 |  | < 10
43 | Cn1c(NCc2ccc(Oc3ncc(Cl)cn3)cc2)nc2ccc(Nc3n[nH]cc3C(N)=O)cc21 [Compound 488] | 1 to 10 |  | > 20
44 | Cn1c(NCc2ccc(Oc3ccc(Cl)cn3)cc2F)nc2ccc(N)cc21 [Compound 272] | < 1 |  | < 10
45 | Cn1c(NCc2ccc(Oc3ccc(OC(F)(F)F)cc3)cc2)nc2ccc(N)cc21 [Compound 292] | < 1 |  | < 10
46 | CC(C)(O)Cn1c(NCc2ccc(Oc3ccc(Cl)cn3)cc2)nc2ccc(NC3COC3)cc21 [Compound 208] | < 1 |  | < 10
47 | Cn1c(NCc2ccc(Oc3ncc4cc(Cl)ccc4n3)cc2)nc2ccc(NC3COC3)cc21 [Compound 406] | < 1 |  | < 10
48 | Cn1c(NCc2ccc(Oc3ccnc4cc(Cl)ccc34)cc2)nc2ccc(NC3COC3)cc21 [Compound 384] | < 1 |  | < 10
49 | CN(C)c1nc2cc(NC3COC3)ccc2n1CCOc1ccc(Cl)cc1 [Compound 41] | 1 to 10 |  | 10 to 20
50 | Cn1c(NCc2ccc(Oc3nccc4cc(Cl)ccc34)cc2)nc2ccc(N)cc21 [Compound 438] | < 1 |  | 10 to 20
51 | CN(C)c1nc2ccc(N3CCC(C(=O)c4ccc(Cl)cn4)C3)cc2[nH]1 (stereo not shown) [Compound 230] | < 1 |  | < 10
52 | CCC(Nc1nc2cc(N)ccc2[nH]1)c1ccc(Oc2ccc(Cl)cc2)cc1 (stereo not shown) [Compound 124] | < 1 |  | < 10
53 | CCN(CC)c1nc2cc(N)ccc2n1CCc1ccc(F)cc1 [Compound 47] | > 10 |  | > 20
54 | Cn1c(NCc2ccc(Oc3ccc4ccc(Cl)cc4n3)cc2)nc2ccc(N)cc21 [Compound 419] | < 1 |  | < 10
55 | Cn1c(NCc2ccc(Oc3cccnc3)cc2)nc2ccc(N)cc21 [Compound 224] | < 1 |  | < 10
56 | Cn1c(NCc2ccc3c(ccn3-c3ccc(Cl)cn3)c2)nc2ccc(NC3COC3)cc21 [Compound 457] | < 1 |  | < 10
